Patent US9833424B2, “Application of fluoxetine to treatment of depigmentation diseases” (SHANDONG RUNZE PHARMACEUTICALS CO., LTD., priority 2011, dated 2017)

Columns and labels:
B16F10 cells [1] = assay: MTT assay for measuring cell proliferation rate of B16F10 cells; type: cell-based, mouse; conditions: 0.1 to 10 μM
C57BL/6 mice [2] = assay: Immunohistochemistry of melanin synthesis proteins in hair follicle melanocytes of C57BL/6 mice; type: in vivo, mouse; conditions: 20 mg/kg gavage, 12th day, immunohistochemical staining
B16F10 cells [3] = assay: Western blotting of melanin synthesis proteins (MITF, TYR, TRP-1, TRP-2) in B16F10 cells; type: cell-based, mouse; conditions: 72 h, vs blank control
C57BL/6 mice [4] = assay: Western blotting of melanin synthesis proteins in skin hair follicles of C57BL/6 mice; type: in vivo, mouse; conditions: 20 mg/kg gavage, 12th day
B16F10 cells [5] = assay: Cell migration (wound healing test) and morphology, B16F10 cells; conditions: 48 hours, 0.1-10 μM
C57BL/6 mice [6] = assay: Skin color on the back of hair-removed synchronized C57BL/6 mice after gavage; type: in vivo, mouse; conditions: 20 mg/kg gavage once a day, 12th day, vs solvent control group
[7] = tested on: tyrosinase activity in normal human skin tissue; assay: Tyrosinase activity of in vitro cultured normal human skin tissue (L-DOPA); type: cell-based; conditions: 1-100 μM, 48 hours
[8] = tested on: human primary melanocytes; assay: Western blotting of melanin synthesis proteins (MITF, TYR, TRP-1, TRP-2) in human primary melanocytes; type: cell-based; conditions: 72 h, vs blank control
[9] = tested on: human primary melanocytes; assay: NaOH lysis method for measuring melanin content of human primary melanocytes; type: cell-based
[10] = in vivo; cited from earlier work
zebrafish embryos = assay: Melanogenesis in PTU-induced zebrafish depigmentation model; type: in vivo; conditions: even at 1.0 μM, hour 12 to hour 60 after fertilization; especially in skin and eyes
Procedure: The zebrafish depigmentation model were obtained by treating zebrafish embryos with 1-phenyl 2-thiourea (PTU). […] Both embryos were treated in 0.2 mM (“M” stands for “mole/liter” throughout this disclosure) PTU to inhibit melanogenesis from after fertilization until the time their pictures were taken, i.e., at hour 35 and hour 60, respectively, i.e., the PTU(35) group and the PTU(60) group. […] Data expressed as mean±SD (n=40).

[11] = tested on: TYR activity in zebrafish; assay: TYR activity in PTU(35) group zebrafish; type: in vivo
Procedure: The zebrafish depigmentation model were obtained by treating zebrafish embryos with 1-phenyl 2-thiourea (PTU). […] All data were expression for at least three experiments. ***P<0.001 vs control; ^#P<0.05, ^##P<0.01, ^###P<0.001 vs PTU (35 h) group. Data expressed as mean±SD (n=40).

[12] = tested on: normal human melanocytes (NHMCs); assay: Morphology of normal human melanocytes (NHMCs), phase-contrast microscopy; type: cell-based; conditions: 0.1-10 μM, 5 days, with increases in dosage
B16F10 cells [13] = assay: NaOH lysis method for determination of melanin content of B16F10 cells; type: cell-based, mouse
[14] = tested on: tyrosinase activity of human primary melanocytes; assay: L-DOPA oxidation assay for tyrosinase activity of human primary melanocytes; type: cell-based
[15] = tested on: in vitro cultured normal human skin tissue; assay: Melanin content of in vitro cultured normal human skin tissue (NaOH cracking process); type: cell-based; conditions: 1 μM, 48 hours
[16] = tested on: normal human primary melanocytes; assay: MTT assay for measuring cell proliferation rate of human primary melanocytes; type: cell-based; conditions: 72 hours
[17] = tested on: tyrosinase activity of B16F10 cells; assay: L-DOPA oxidation assay for measuring tyrosinase activity of B16F10 cells; type: cell-based, mouse
A375 cells = assay: Cell migration (wound healing test) and morphology, A375 cells; conditions: 48 hours, 0.1-10 μM

**Q.** For `CNCCC(Oc1ccc(C(F)(F)F)cc1)c1ccccc1` (centres unmarked) [fluoxetine, N-methyl-γ-[4-(trifluoromethyl)phenoxy] phenylpropylamine], which “toxicity and carcinogenesis on B16F10 melanoma cells” value (B16F10 cells [1]) is on record?
**A.** low toxicity and low carcinogenesis

**Q.** What about the “effect on the growth of B16F10 cells (cell proliferation rate)” value (B16F10 cells [1]; 72 hours, vs blank control, P>0.05) of the same compound?
**A.** no significant effect

**Q.** What about the “expression of tyrosinase (TYR) in hair follicle melanocytes” value (C57BL/6 mice [2]) of the same compound?
**A.** significantly improve

**Q.** And the “expression of tyrosinase-related protein 1 (TRP-1) in hair follicle melanocytes” value (C57BL/6 mice [2])?
**A.** significantly improve

**Q.** What about the “expression of tyrosinase-related protein 2 (TRP-2) in hair follicle melanocytes” value (C57BL/6 mice [2]) of the same compound?
**A.** significantly improve

**Q.** What about the “expression of protein MITF” value (B16F10 cells [3]) of the same compound?
**A.** significantly improve

**Q.** And the “expression of protein tyrosinase (TYR)” value (B16F10 cells [3])?
**A.** significantly improve

**Q.** And the “expression of tyrosinase-related protein 1 (TRP-1)” value (B16F10 cells [3])?
**A.** significantly improve

**Q.** What about the “protein level of tyrosinase-related protein 2 (TRP-2)” value (B16F10 cells [3]) of the same compound?
**A.** not significantly affected

**Q.** And the “expression of protein MITF in skin hair follicles” value (C57BL/6 mice [4])?
**A.** significantly improve

**Q.** What about the “expression of tyrosinase (TYR) in skin hair follicles” value (C57BL/6 mice [4]) of the same compound?
**A.** significantly improve

**Q.** And the “expression of tyrosinase-related protein 1 (TRP-1) in skin hair follicles” value (C57BL/6 mice [4])?
**A.** significantly improve

**Q.** And the “expression of tyrosinase-related protein 2 (TRP-2) in skin hair follicles” value (C57BL/6 mice [4])?
**A.** significantly improve

**Q.** And the cell mobility (B16F10 cells [5])?
**A.** may increase the mobility

**Q.** And the “skin color in the hair-removed area of the skin” value (C57BL/6 mice [6])?
**A.** significantly darkened

**Q.** What about the “activity of tyrosinase in skin tissue” value [7] of the same compound?
**A.** did not exhibit any change

**Q.** And the “expression of protein MITF” value [8]?
**A.** significantly improve

**Q.** What about the “expression of protein tyrosinase (TYR)” value [8] of the same compound?
**A.** significantly improve

**Q.** And the “expression of tyrosinase-related protein 1 (TRP-1)” value [8]?
**A.** significantly improve

**Q.** And the “protein level of tyrosinase-related protein 2 (TRP-2)” value [8]?
**A.** not significantly affected

**Q.** And the “melanin content of human primary melanocytes” value ([9]; 72 hours, vs control group, P<0.01)?
**A.** significantly increased

**Q.** What about the “melanin content increase rate compared with positive drug psoralen” value ([9]; human primary melanocytes) of the same compound?
**A.** close to or exceeded that of the positive drug psoralen

**Q.** And the “drug excreted in the stool” value [10]?
**A.** 15%

**Q.** And the “drug excreted in the urine” value [10]?
**A.** about 80%

**Q.** What about the “melanogenesis in the PTU model zebrafish” value (zebrafish embryos) of the same compound?
**A.** increased melanogenesis

**Q.** What about the “TYR activity, dosage dependence” value ([11]; PTU(35) group zebrafish, 10.0 μM compared with 1.0 μM) of the same compound?
**A.** higher TRY activity than Flx(1.0 μM)

**Q.** And the “TYR activity in the PTU(35) group zebrafish” value ([11]; exposure for 48 hours (hour 12 to hour 60 after fertilization))?
**A.** enhanced the TYR activity

**Q.** And the “dendritic morphology of NHMCs (number and length of dendrites)” value [12]?
**A.** the number as well as the length of the primary dendritic melanocytes increase significantly

**Q.** What about the “melanin content of B16F10 cells” value (B16F10 cells [13]; 1 to 10 μM, 72 hours, vs blank control, P<0.05 at 1 μM, P<0.01 at 5 μM and 10 μM) of the same compound?
**A.** significantly increased

**Q.** And the “melanin content increase rate compared with positive drug psoralen” value (B16F10 cells [13]; B16F10 cells)?
**A.** exceeded that of the positive drug psoralen

**Q.** And the “tyrosinase activity of human primary melanocytes” value ([14]; 72 hours, vs blank control, P<0.01)?
**A.** significantly promoted

**Q.** What about the “enzyme activity increase rate compared with positive drug psoralen” value ([14]; human primary melanocytes, fluoxetine at 5 μM and 10 μM) of the same compound?
**A.** exceeded that of the positive drug psoralen

**Q.** And the “melanogenesis (melanin content) in skin tissue” value [15]?
**A.** stimulates melanogenesis

**Q.** And the “toxicity on human primary melanocytes” value [16]?
**A.** relatively low toxicity

**Q.** And the “effect on the growth of normal human primary melanocytes” value ([16]; vs blank control, P>0.05)?
**A.** no significant effect

**Q.** And the “tyrosinase activity of B16F10 cells” value ([17]; 72 hours, vs blank control, P<0.05 at 1 μM and 5 μM, P<0.01 at 10 μM)?
**A.** significantly promoted

**Q.** And the “enzyme activity increase rate compared with positive drug psoralen” value ([17]; B16F10 cells, fluoxetine in the highest concentration)?
**A.** close to that of the positive drug psoralen

**Q.** What about the cell mobility (A375 cells) of the same compound?
**A.** may increase the mobility
